According to publication PMC13334477 (RSC Medicinal Chemistry, 2026):
Read-outs that look alike come from different tables or passages of the source.

Assays:
[1] = tested on: rLTR4-3′Cy5 (parallel RNA G4); test: Ligand-induced fluorescence quenching assay (FQA), rLTR4-3′Cy5; type: binding, HIV-1
Protocol: Cy5 labelled oligonucleotides were purchased lyophilized and RP-cartridge purified from Eurogentec (Kanaka Eurogentec, Seraing, Belgium). The ligand-induced fluorescence quenching assay was conducted as previously described.[47] A Stratagene Mx3005P instrument was used to carry out the assay in 96-well plates. The filters for excitation and emission were set at 635 nm and 665 nm, respectively. The gain was used at 8×. The labeled oligonucleotide was used at 10 nM, and the buffer was 10 mM lithium cacodylate (pH 7.2), 10 mM KCl, and 90 mM LiCl in a final volume of 50 μL. The oligonucleotide was heated at 90 °C for 5 min and put in ice to anneal. The ligand was added over a range of concentrations between 0 and 80 μM. A competitor, ds26, was also added at 3 or 10 μM. Each experimental condition was tested in triplicate except for the ligand alone with the buffer, which was tested in duplicate. The instrument was programmed to heat the plate for 10 min at 25 °C and measure the fluorescence after 1 min for 5 cycles. The fluorescence of each sample was normalized, and the fluorescence of the ligand alone was subtracted.
We then addressed the binding of the DBA series to the rLTR4 RNA G4. The FRET melting assay was not appropriate for investigating ligand binding to this RNAs due to its high thermal stability (Tm > 72 °C).[26] We have therefore used a ligand-induced fluorescence quenching assay (FQA) to analyse the interaction of the DBAs with either 5′ or 3′ fluorescently labelled RNAs (Fig. S8). Since planar G4-ligands generally stack on an accessible G-quartet,[94–96] we expect the DBAs to also recognize G4s by stacking interactions. To conduct a fluorescence quenching experiment, a CY5 fluorophore is attached on the 3′ or 5′ end of the RNA. […] Thus, upon interaction of the ligand with the G-quartet, the ligand induces the quenching of the fluorescence emission. This test enables determination of the apparent association constants (Ka) of each DBA with the 5′ or 3′ quartet of the G4 structure (Fig. 4, Table S3). […] A similar difference in G-tetrad binding affinities has previously been observed for TMPyP4 and PhenDC3.[47]
The fluorescently labeled oligonucleotides were dissolved at a concentration of 10 nM in 10 mM lithium cacodylate buffer (pH 7.2) with 10 mM KCl and 90 mM LiCl. […] Data are the results of at least three independent experiments in which each data point was performed in duplicate.

[2] = biological target: G4T4G4 DNA G4 (antiparallel); test: Native ESI-MS, G4T4G4; type: binding; settings: 10 μM DNA, 20 μM ligand, 100 mM ammonium acetate
Protocol: (§1) Oligonucleotides were purchased lyophilized and RP-cartridge purified from Eurogentec (Kanaka Eurogentec, Seraing, Belgium), then buffer exchanged with ammonium acetate (5 M; Sigma-Aldrich, Saint-Quentin-Fallavier, France) using Amicon Ultra (3 K cut-off; Merck Millipore, Cork, Ireland). The concentrations of the initial stock solutions of DNA/RNA (∼1 mM) were measured by UV absorbance at 260 nm. Sample solutions were prepared by diluting the appropriate volume of oligonucleotide stock solutions to reach 10 μM of DNA/RNA and 20 μM of ligand, in 100 mM ammonium acetate. The solutions were incubated for 16 h at 4 °C before analysis by mass spectrometry. […] These parameters ensured a good signal intensity without disrupting noncovalent complexes, which was verified using d[G4T4G4]2 as a control. The presented spectra of all DNA/RNA used in this work (Fig. 5, S9 and S10) result from 8 min accumulations. The abundance of each species, M, M + 1L, M + 2L and M + 3L complexes, where M is a monomer oligonucleotide and L is a ligand, was determined from their peak area signals (A), from the sum of the −4, −5 and −6 charge states for DNA and from the sum of the −5, −6 and −7 charge states for RNA, assuming that their response factors are equal. The molar concentrations were then calculated knowing the total amount of oligonucleotide [M]tot: [drawing 1] [drawing 2] [drawing 3] [drawing 4] The concentration of the free ligand, [L]free, was determined from its total concentration [L]tot:[L]free = [L]tot − [M + 1L] − 2[M + 2L] − 3[M + 3L]Apparent consecutive dissociation constants (Kd1, Kd2 and Kd3) were calculated by using the following equations: [drawing 5] [drawing 6] [drawing 7]
(§2) We further analysed the formation of the DBA/G4 complexes by native electrospray ionization mass spectrometry (ESI-MS). We initially attempted to analyze DBA binding to the primary G4 targets from HIV-1 (HIVpro1, HIVpro2, LTR4 and rLTR4 RNA). […] These sequences span the major G4 topological classes and provide a representative assessment of DBA binding across diverse G4 architectures. We also included two DNA duplex controls (DK100 and DK66) to evaluate binding selectivity. This ESI-MS approach enables direct determination of binding stoichiometry, quantification of each species in solution, and calculation of dissociation constants (Kd) from the relative abundances of free and bound forms.[88,97]
(§3) In the ESI-MS conditions, the rLTR4 G4 (10 μM) forms a dimeric structure. […] Among the six DNA and RNA tested here (Fig. 5B, S9 and S10) only rLTR4 presented 1 : 3 G4/DBA complexes. In all cases but one, the 1 : 1 stoichiometry represents the major species in solution while for rLTR4 it is the 1 : 2 (green). […] For TG4T tetramolecular G4 or G4T4G4 bimolecular G4 only 1 : 1 and 1 : 2 complexes were detected (Fig. S9A and S10A). […] The weakest binding was obtained for the G4T4G4 antiparallel G4 and Htel sequence with Kd1s ranging from 11 μM for to 500 μM (Table 2).

[3] = biological target: Htel DNA G4 (human telomeric); test: Native ESI-MS, Htel; type: binding; settings: 10 μM DNA, 20 μM ligand, 100 mM ammonium acetate
Protocol: as §1, §2, §3

DK66 DNA duplex = test: Native ESI-MS, DK66; type: binding; settings: 10 μM DNA, 20 μM ligand, 100 mM ammonium acetate
Protocol: as §1, §2, §3

[4] = tested on: DK66 (DNA, duplex) CGCGAATTCGCG; test: native ESI-MS; settings: 100 mM ammonium acetate (NH4+), no K+, apparent, 10 μM DNA, 20 μM ligand, 4 °C incubation

Structure (SMILES) | Ka rLTR4-3′Cy5 FQA ([1]; +10µM ds26) | Kd ([1]; +10µM ds26) [µM] | Ka rLTR4-3′Cy5 FQA ([1]; No ds26) | Kd ([1]; No ds26) [µM] | Kd ([2]; read-out: Kd1 G4T4G4) [µM] | Kd ([2]; read-out: Kd2 G4T4G4) [µM] | Kd ([3]; read-out: Kd1 Htel) [µM] | Kd ([3]; read-out: Kd2 Htel) [µM] | Kd (DK66 DNA duplex; read-out: Kd1 DK66) [µM] | Kd1 ([4]; almost no complex detected) [µM] | Kd (DK66 DNA duplex; read-out: Kd2 DK66) [µM] | Kd1 ([4]; site 1 of 2) [µM]
COc1ccc2c(ccc3c2cc2c4ccc(OC)cc4ccc2[n+]3-c2ccccc2)c1 [DBA1] | 2.8±0.23 10^5 M | 3.3 ± 0.4 | 3.1±0.2 10^5 M | 3.2 ± 0.5 | 47.1 | 38.6 | 497 | 103 | 4830 | 4833.59 | – | –
COc1ccc2c(ccc3c2cc2c4ccc(OC)cc4ccc2[n+]3-c2ccc([N+](=O)[O-])cc2)c1 [DBA4] | 1.9±0.1 10^5 M | 5.3 ± 1.1 | 3.0±0.24 10^5 M | 3.3 ± 0.4 | 46.2 | 26.6 | 11.2 | 55.6 | 165 | – | 308 | 165.13
COc1ccc(-[n+]2c3ccc4cc(OC)ccc4c3cc3c4ccc(OC)cc4ccc32)cc1 [DBA3] | 1.5±0.09 10^5 M | 6.9 ± 1.1 | 1.6±0.11 10^5 M | 6.2 ± 1 | 36.9 | 37 | 52.4 | 27.2 | 1070 | 1071.92 | – | –
c1ccc(-[n+]2c3ccc4ccccc4c3cc3c4ccccc4ccc32)cc1 [DBA5] | 2.5±0.2 10^5 M | 4 ± 0.6 | 2.5±0.31 10^5 M | 4 ± 0.3 | 129 | 33.4 | 14.5 | 24.7 | 75.4 | – | 117 | 75.39
COC(=O)c1ccc(-[n+]2c3ccc4cc(OC)ccc4c3cc3c4ccc(OC)cc4ccc32)cc1 [DBA2] | 1.2±0.08 10^5 M | 8.6 ± 1.3 | 1.5±0.06 10^5 M | 6.7 ± 1.5 | 51.2 | 33.6 | 41.1 | 35.3 | 712 | 711.55 | – | –
